Measured values: patent US20050064027A1, “Bioadhesive drug delivery system with enhanced gastric retention” (Spherics, Inc., priority 2001, published 2005)

Assay: Release kinetics from multi-drug macrospheres
Type: physicochemical
Settings: salicylate in outer Eudragit RL 100 coating, acyclovir in core
From the text: Fluidized bed spraying of 5% RL 100-coated 40% Acyclovir (ACV) loaded cores with 25% sodium salicylate w/w in a 10% RL 100-coating was then used to produce multi-drug macrospheres.
The starting material was the product of Example 2 (5% w/w RL 100 coated 40% ACV cores and overcoat with 10% RL 100 coating containing 25% w/w sodium salicylate). Overcoating with a 10% w/w coating of RL100 containing 25% w/w salicylate was used to produce a biphasic drug system. Sodium salicylate should be quickly delivered followed by acyclovir release. A 176.0 g lot of beads, 40% w/w Acyclovir (1.4-2.36 mm) was used as the cores for the coatings.
The release kinetics of the two drugs from the macrospheres of Example 6 were then determined. FIG. 6 is a graph of release of acyclovir (ACV) and salicylate as a function of percent total acyclovir loading, over time (in hours), from macrospheres wherein the salicylate is encapsulated in an outer Eudragit® RL 100 coating and the acyclovir is encapsulated in the core. The outer drug loading is used to achieve rapid release (three hours) as compared to more long term release of the core drug (24 hours).

Structure (SMILES)	time of release of drug from multi-drug macrospheres	time of release of drug from multi-drug macrospheres (listed as salicylate)
O=C([O-])c1ccccc1O.[Na+] [sodium salicylate]	≤ 3 h	three
Nc1nc2c(ncn2COCCO)c(=O)[nH]1 [acyclovir]	24 h	–
